The values below come from ChEMBL document CHEMBL5360523, “Ligand- and structure-based identification of novel CDK9 inhibitors for the potential treatment of leukemia” (Bioorg Med Chem, 2022).

The test system of one series is HCT-116. The series is described as follows: Antiproliferative activity against human HCT-116 cells assessed as inhibition of cell viability incubated for 48 hrs by CCK8 method. The class given is functional, cell-based. To be noted: HCT-116, 48 h. (In general: Tetrazolium assays rely on reduction of a dye to a coloured formazan, in cell work by metabolically active cells.)

In series [1] the test system is MOLM-13. Nature of the series: Induction of apoptosis in human MOLM-13 cells assessed as viable cells at 10 uM incubated for 24 hrs by Annexin V-FITC and propidium iodide staining based flow cytometry analysis (reference value: 92.7%). The series is classed as functional. To be noted: read-out: Activity. A general note: In flow cytometry, cells or beads pass a laser one at a time.

For another series, the system named is A549. Nature of the series: Antiproliferative activity against human A549 cells assessed as inhibition of cell viability incubated for 48 hrs by CCK8 method. The class given is functional, cell-based. To be noted: A549, 48 h.
The subject of a further series is HepG2. The series is described as follows: Antiproliferative activity against human HepG2 cells assessed as inhibition of cell viability incubated for 48 hrs by CCK8 method. The series is classed as functional, cell-based. Particulars: HepG2, 48 h.
The test system of the next series is HeLa. Nature of the series: Antiproliferative activity against human HeLa cells assessed as inhibition of cell viability incubated for 48 hrs by CCK8 method. The series is classed as functional, cell-based.
The test system of a further series is CNE-2. Nature of the series: Antiproliferative activity against human CNE-2 cells assessed as inhibition of cell viability incubated for 48 hrs by CCK8 method. The class given is functional, cell-based. Particulars: CNE-2, 48 h.
Series [2] deals with MOLM-13. The series is described as follows: Induction of apoptosis in human MOLM-13 cells assessed as late apoptotic cells at 10 uM incubated for 24 hrs by Annexin V-FITC and propidium iodide staining based flow cytometry analysis (reference value: 3.65%). The class given is functional.
Series [3] has as its system MOLM-13. The series is described as follows: Induction of apoptosis in human MOLM-13 cells assessed as early apoptotic cells at 10 uM incubated for 24 hrs by Annexin V-FITC and propidium iodide staining based flow cytometry analysis (reference value: 2.86%). The series is classed as functional.
Series [4] relates to MOLM-13. The series is described as follows: Antiproliferative activity against human MOLM-13 cells assessed as inhibition of cell viability incubated for 48 hrs by CCK8 method. The series is classed as functional, cell-based. Particulars: MOLM-13, 48 h.
Series [5] concerns MOLM-13. The series is described as follows: Induction of apoptosis in human MOLM-13 cells assessed as necrotic cells at 10 uM incubated for 24 hrs by Annexin V-FITC and propidium iodide staining based flow cytometry analysis (reference value: 0.84%). The series is classed as functional.
Another series has as its system MDA-MB-231. Nature of the series: Antiproliferative activity against human MDA-MB-231 cells assessed as inhibition of cell viability incubated for 48 hrs by CCK8 method. The class given is functional, cell-based. To be noted: MDA-MB-231, 48 h.
Another series deals with MCF7. The series is described as follows: Antiproliferative activity against human MCF7 cells assessed as inhibition of cell viability incubated for 48 hrs by CCK8 method. The class given is functional, cell-based. To be noted: MCF7, 48 h.
For series [6], the target named is T1, Cyclin-dependent kinase 9 (Homo sapiens, UniProt P50750). The series is described as follows: Inhibition of CDK9 (unknown origin) incubated for 10 mins.
T1 sequence (P50750 whole entry): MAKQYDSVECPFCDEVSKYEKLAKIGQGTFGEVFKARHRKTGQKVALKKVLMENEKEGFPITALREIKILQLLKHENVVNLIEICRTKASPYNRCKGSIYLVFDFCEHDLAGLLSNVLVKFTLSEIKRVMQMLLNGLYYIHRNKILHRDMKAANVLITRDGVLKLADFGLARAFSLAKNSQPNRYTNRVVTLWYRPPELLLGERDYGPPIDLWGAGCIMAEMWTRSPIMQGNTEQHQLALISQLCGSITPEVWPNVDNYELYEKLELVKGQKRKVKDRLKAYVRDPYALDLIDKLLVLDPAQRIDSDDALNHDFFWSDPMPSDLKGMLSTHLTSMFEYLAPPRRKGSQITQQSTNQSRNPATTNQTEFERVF
Series [7] has as its target T1, Cyclin-dependent kinase 9. The series is described as follows: Inhibition of CDK9 (unknown origin) at 20 uM incubated for 10 mins relative to control.
Series [8] is described as follows: Stability of the compound in artificial gastric fluid assessed as compound remaining measured upto 8 hrs by HPLC analysis. The class given is ADME. Particulars: read-out: Stability.
Series [9] can be described thus: Stability in rat liver microsomes assessed as compound remaining measured upto 3 hrs by HPLC analysis. The series is classed as ADME, Microsome. Particulars: read-out: Stability. (In general: Microsomes from liver hold many membrane-bound enzymes, among them those of drug oxidation.)
The nature of series [10]: Stability of the compound in artificial intestinal fluid assessed as compound remaining measured upto 8 hrs by HPLC analysis. To be noted: read-out: Stability. The series is classed as ADME.
Series [11] is described as follows: Stability in human plasma assessed as compound remaining measured upto 4 hrs by HPLC analysis. The class given is ADME, cell-free. Particulars: read-out: Stability.
Series [12] has as its target T1, Cyclin-dependent kinase 9. Nature of the series: Inhibition of CDK9 in human MOLM-13 cells assessed as increase in cleaved PARP level at 10 to 25 uM incubated for 24 hrs by Western blot analysis. The class given is cell-based. Particulars: dose 10-25 µM.
In series [13] the test system is MOLM-13. Nature of the series: Induction of apoptosis in human MOLM-13 cells assessed as viable cells at 2.5 uM incubated for 24 hrs by Annexin V-FITC and propidium iodide staining based flow cytometry analysis (reference value: 92.7%). The class given is functional. To be noted: read-out: Activity.
The subject of series [14] is MOLM-13. The series is described as follows: Induction of apoptosis in human MOLM-13 cells incubated for 24 hrs by Annexin V-FITC and propidium iodide staining based flow cytometry analysis. The series is classed as functional, cell-based. To be noted: dose 2.5-10 µM.
In series [15] the target is T1, Cyclin-dependent kinase 9. Nature of the series: Inhibition of CDK9 in human MOLM-13 cells assessed as suppression of p-RNAP II CTD (Ser2 residue) phosphorylation incubated for 24 hrs by Western blot analysis. The class given is cell-based. Particulars: dose 10-25 µM.
Series [16] relates to MOLM-13. Nature of the series: Induction of apoptosis in human MOLM-13 cells assessed as early apoptotic cells at 2.5 uM incubated for 24 hrs by Annexin V-FITC and propidium iodide staining based flow cytometry analysis (reference value: 2.86%). The class given is functional.
Series [17] addresses T1, Cyclin-dependent kinase 9. The series is described as follows: Inhibition of CDK9 in human MOLM-13 cells assessed as decrease in Mcl-1 expression incubated for 24 hrs by Western blot analysis. The class given is cell-based. To be noted: dose 10-25 µM.
In series [18] the test system is MOLM-13. Nature of the series: Induction of apoptosis in human MOLM-13 cells assessed as late apoptotic cells at 2.5 uM incubated for 24 hrs by Annexin V-FITC and propidium iodide staining based flow cytometry analysis (reference value: 3.65%). The class given is functional.
Series [19] has as its system MOLM-13. The series is described as follows: Induction of apoptosis in human MOLM-13 cells assessed as necrotic cells at 2.5 uM incubated for 24 hrs by Annexin V-FITC and propidium iodide staining based flow cytometry analysis (reference value: 0.84%). The class given is functional.
Series [20] concerns MOLM-13. Nature of the series: Induction of apoptosis in human MOLM-13 cells assessed as necrotic cells at 5 uM incubated for 24 hrs by Annexin V-FITC and propidium iodide staining based flow cytometry analysis (reference value: 0.84%). The class given is functional.
Series [21] concerns MOLM-13. The series is described as follows: Induction of apoptosis in human MOLM-13 cells assessed as early apoptotic cells at 5 uM incubated for 24 hrs by Annexin V-FITC and propidium iodide staining based flow cytometry analysis (reference value: 2.86%). The series is classed as functional.
In series [22] the test system is MOLM-13. Nature of the series: Induction of apoptosis in human MOLM-13 cells assessed as late apoptotic cells at 5 uM incubated for 24 hrs by Annexin V-FITC and propidium iodide staining based flow cytometry analysis (reference value: 3.65%). The series is classed as functional.
In series [23] the test system is MOLM-13. Nature of the series: Induction of apoptosis in human MOLM-13 cells assessed as viable cells at 5 uM incubated for 24 hrs by Annexin V-FITC and propidium iodide staining based flow cytometry analysis (reference value: 92.7%). The series is classed as functional. Particulars: read-out: Activity.

Active and inactive are the calls of the source. No cut-off for these calls is given here.

By IC50 is commonly meant the point on the concentration scale where inhibition reaches its midpoint. `CN1CC[C@H](c2c(O)cc(O)c3c(=O)cc(-c4ccccc4Cl)oc23)[C@H](O)C1` [ALVOCIDIB]: the 50% inhibitory concentration (IC50) worked out at 0.03 µM with HCT-116; 0.1 µM with A549; 0.56 µM in the series on HepG2; 0.15 µM with HeLa; 0.12 µM in the series on CNE-2; 0.07 µM in the series with MOLM-13 [4]. Further, the IC50 in the series on MDA-MB-231 was 0.06 µM; in the series on MCF7, 0.71 µM. In addition, the viability at 10 µM in the series with MOLM-13 [1] worked out at 44.5%. In addition, the Activity stood at 7.81% in the series on MOLM-13 [2], 25.5% in the series with MOLM-13 [3] and 22.3% in the series with MOLM-13 [5].

For orientation: inhibition means the percentage by which the read-out fell short of the control. For `CCCCNc1nc(N)nc(-c2cc(Cl)ccc2O)n1`, the IC50 in the series with HCT-116 worked out at 27.2 µM; in the series on A549, 19.2 µM; with HepG2, 40.9 µM; in the series with HeLa, 13.7 µM; in the series on CNE-2, 17 µM; in series [6] it was 0.214 µM. The IC50 in the series on MOLM-13 [4] was 13.5 µM; in the series with MDA-MB-231, 16 µM; with MCF7, 11.3 µM. This compound also registered an inhibition in [7] of 93.6%.

As for `O=C(NCCc1c[nH]c2ccc(Cl)cc12)c1cc(-c2cccnc2)n[nH]1`, the IC50 is 15.6 µM in the series on HCT-116; over 50 µM with A549; 19.8 µM in the series with HepG2; 29.4 µM with HeLa; 17.1 µM in the series on CNE-2; 2.52 µM in the series with MOLM-13 [4]. Moreover, the IC50 with MDA-MB-231 turned out to be 28.2 µM; with MCF7, 20.9 µM. This compound displayed an inhibition in [7] of 22.7%.

With `O=C(Cn1cc(Br)c(=O)n(CC(=O)Nc2ccc(Br)cn2)c1=O)Nc1ccc(Br)cn1`, the remaining at 8 h in series [8] and in series [10] was over 90% each time. Further, the remaining at 3 h in series [9] is over 90%. Besides, the IC50 in the series with HCT-116 was 3.22 µM; in the series on A549, 15.3 µM; in the series with HepG2, over 50 µM; with HeLa it was 6.61 µM; in the series with CNE-2, 28.3 µM; in series [6], 0.219 µM. Moreover, the IC50 with MOLM-13 [4] was determined as 11.8 µM; in the series on MDA-MB-231 it was 8.34 µM; with MCF7, 6.14 µM. Also, in series [11], the remaining at 4 h is over 90%. The same compound yielded an inhibition in series [7] of 76.4%.

As to `Nc1nc(Nc2ccccc2)nc(-c2cc(Cl)ccc2O)n1`, the remaining at 8 h in series [8] and in [10] was over 90% in each case. The inhibition result in series [12] is “Active”. Also, the viability at 2.5 µM with MOLM-13 [13] came to 92.1%. The Activity entry with MOLM-13 [14] was “Dose-Dependent Effect”; with MOLM-13 [16], 3.2%; with MOLM-13 [18], 3.88%; with MOLM-13 [2], 5.43%; in the series on MOLM-13 [19] it was 0.77%; in the series on MOLM-13 [20], 1.12%. Besides, the Activity in the series with MOLM-13 [3] stood at 6.13%; in the series on MOLM-13 [21], 3.97%; in the series on MOLM-13 [22] it was 3.96%; in the series on MOLM-13 [5], 1.38%. Besides, in [9], the remaining at 3 h is over 90%. Besides, the IC50 was 22.2 µM in the series with HCT-116; over 50 µM with A549; over 50 µM in the series with HepG2; 2.53 µM in the series with HeLa; 34.5 µM in the series on CNE-2; 0.295 µM in series [6]. Further, the IC50 in the series on MOLM-13 [4] is 3.92 µM; in the series with MDA-MB-231 it was 11.7 µM; in the series on MCF7 it was 23.5 µM. Besides, in the series with MOLM-13 [1], the viability at 10 µM was determined as 87.1%. Besides, the inhibition result in series [15] was “Dose-Dependent Effect”; in series [17] it was “Dose-Dependent Effect”; in [7] it was 88.4%. Also, in [11], the remaining at 4 h is over 90%. The viability at 5 µM in the series with MOLM-13 [23] is 90.9%.

On to `CCNc1nc(N)nc(-c2cc(Cl)ccc2O)n1`, for which the IC50 in the series with HCT-116 was 26.6 µM; in the series on A549, over 50 µM; in the series with HepG2, 49.2 µM; in the series with HeLa, 7.38 µM; in the series with CNE-2, 30.4 µM; in series [6], 0.335 µM. Also, the IC50 in the series on MOLM-13 [4] was 15.2 µM; in the series on MDA-MB-231 it was 21.2 µM; with MCF7, 18.9 µM. For the same compound, the inhibition in series [7] was 93.7%.

Take `Nc1nc(NCCc2ccccc2)nc(-c2cc(Cl)ccc2O)n1`: the remaining at 8 h in [8] and in series [10] was over 90% in each case. For the same compound, the remaining at 3 h in series [9] was over 90%. For the same compound, the IC50 was over 50 µM with HCT-116; 28.2 µM in the series with A549; 29 µM in the series on HepG2; 25.1 µM with HeLa; over 50 µM with CNE-2; 0.504 µM in series [6]. For the same compound, the IC50 in the series on MOLM-13 [4] was determined as 4.58 µM; in the series on MDA-MB-231, 14.5 µM; in the series on MCF7 it was 29 µM. The remaining at 4 h in series [11] was over 90%. Moreover, the inhibition in [7] stood at 92.2%.
